Columns and labels:
Assay in all cases: KinaseProfiler kinase selectivity assay
Format in all cases: biochemical
KDR(h) = KDR(h) (Homo sapiens, UniProt P35968)
Description: (§1) All compounds were prepared to 50× final assay concentration in 100% DMSO. This working stock of the compound was added to the assay well as the first component in the reaction, followed by the remaining components. In the standard KinaseProfiler™ service, there is no pre-incubation step between the compound and the kinase prior to initiation of the reaction. The positive control wells contain all components of the reaction, except the compound of interest; however, DMSO (at a final concentration of 2%) is included in these wells to control for solvent effects. The blank wells contain all components of the reaction, with a reference inhibitor replacing the compound of interest. This abolishes kinase activity and establishes the base-line (0% kinase activity remaining).

[1] = target: PI3 Kinase (p110β/p85α)(h) (Homo sapiens, UniProt P42338)
Description: as §1

ASK1(h) = ASK1(h) (Homo sapiens, UniProt Q99683)
Chain of ASK1(h) (Q99683 whole entry): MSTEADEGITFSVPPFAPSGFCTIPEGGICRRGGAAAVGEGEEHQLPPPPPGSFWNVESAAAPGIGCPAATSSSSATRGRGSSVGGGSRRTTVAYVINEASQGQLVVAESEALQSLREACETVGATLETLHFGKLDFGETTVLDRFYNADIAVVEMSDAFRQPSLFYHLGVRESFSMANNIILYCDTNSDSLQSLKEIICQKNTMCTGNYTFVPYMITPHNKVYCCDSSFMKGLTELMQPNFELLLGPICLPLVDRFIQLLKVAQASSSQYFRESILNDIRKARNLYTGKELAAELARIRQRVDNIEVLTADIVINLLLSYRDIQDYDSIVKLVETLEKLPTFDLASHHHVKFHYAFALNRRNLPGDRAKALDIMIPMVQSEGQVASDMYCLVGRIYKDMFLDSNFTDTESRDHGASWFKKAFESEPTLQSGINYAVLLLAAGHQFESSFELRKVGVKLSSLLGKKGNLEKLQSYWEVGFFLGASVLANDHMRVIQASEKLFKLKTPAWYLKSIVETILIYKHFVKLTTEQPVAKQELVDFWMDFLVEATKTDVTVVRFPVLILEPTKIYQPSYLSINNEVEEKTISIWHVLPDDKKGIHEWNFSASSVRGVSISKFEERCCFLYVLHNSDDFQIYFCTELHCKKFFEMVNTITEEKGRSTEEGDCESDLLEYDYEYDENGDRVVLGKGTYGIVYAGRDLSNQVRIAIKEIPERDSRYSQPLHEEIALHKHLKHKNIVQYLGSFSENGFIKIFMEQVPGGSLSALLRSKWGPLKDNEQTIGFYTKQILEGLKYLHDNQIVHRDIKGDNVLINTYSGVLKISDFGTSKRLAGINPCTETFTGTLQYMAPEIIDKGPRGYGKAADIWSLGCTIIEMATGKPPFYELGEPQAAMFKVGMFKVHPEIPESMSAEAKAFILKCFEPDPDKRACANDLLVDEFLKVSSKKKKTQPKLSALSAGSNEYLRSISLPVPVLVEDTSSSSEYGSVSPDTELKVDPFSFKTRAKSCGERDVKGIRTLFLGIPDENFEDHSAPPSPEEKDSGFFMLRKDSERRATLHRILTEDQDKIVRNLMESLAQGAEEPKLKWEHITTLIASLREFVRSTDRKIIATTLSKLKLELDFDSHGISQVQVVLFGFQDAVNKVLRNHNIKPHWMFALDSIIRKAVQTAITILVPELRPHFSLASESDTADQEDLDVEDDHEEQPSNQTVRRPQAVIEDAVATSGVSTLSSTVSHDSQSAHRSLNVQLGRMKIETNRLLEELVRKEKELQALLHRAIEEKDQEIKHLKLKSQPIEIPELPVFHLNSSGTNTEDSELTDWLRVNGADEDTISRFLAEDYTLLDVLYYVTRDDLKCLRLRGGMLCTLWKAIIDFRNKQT
Description: as §1

CDK1/cyclinB(h) = CDK1/cyclinB(h) (Homo sapiens, UniProt P06493)
Description: as §1

p70S6K(h) = p70S6K(h) (Homo sapiens, UniProt P23443)
Description: as §1

MST1(h) = MST1(h) (Homo sapiens, UniProt Q13043)
Chain of MST1(h) (Q13043 whole entry): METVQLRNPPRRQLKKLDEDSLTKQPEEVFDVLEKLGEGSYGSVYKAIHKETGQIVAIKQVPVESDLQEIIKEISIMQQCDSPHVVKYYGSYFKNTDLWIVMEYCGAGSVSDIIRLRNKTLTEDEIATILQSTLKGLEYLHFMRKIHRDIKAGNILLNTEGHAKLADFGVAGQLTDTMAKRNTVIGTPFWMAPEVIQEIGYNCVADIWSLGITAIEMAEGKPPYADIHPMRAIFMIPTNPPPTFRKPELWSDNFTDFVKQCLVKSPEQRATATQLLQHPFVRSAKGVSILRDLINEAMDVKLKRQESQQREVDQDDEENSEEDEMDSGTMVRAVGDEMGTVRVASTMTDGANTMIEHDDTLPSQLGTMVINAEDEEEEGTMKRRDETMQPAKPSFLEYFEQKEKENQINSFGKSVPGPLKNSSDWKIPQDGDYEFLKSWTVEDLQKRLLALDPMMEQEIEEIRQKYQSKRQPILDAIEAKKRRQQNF
Description: as §1

EGFR(h) = EGFR(h) (Homo sapiens, UniProt P00533)
Description: as §1

CK2α2(h) = CK2α2(h) (Homo sapiens, UniProt P19784)
Description: as §1

IRAK4(h) = IRAK4(h) (Homo sapiens, UniProt Q9NWZ3)
Description: as §1

NEK2(h) = NEK2(h) (Homo sapiens, UniProt P51955)
Description: as §1

PI3 Kinase (p120γ)(h) = PI3 Kinase (p120γ)(h) (Homo sapiens, UniProt P48736)
Description: as §1

c-RAF(h) = c-RAF(h) (Homo sapiens, UniProt P04049)
Chain of c-RAF(h) (P04049 whole entry): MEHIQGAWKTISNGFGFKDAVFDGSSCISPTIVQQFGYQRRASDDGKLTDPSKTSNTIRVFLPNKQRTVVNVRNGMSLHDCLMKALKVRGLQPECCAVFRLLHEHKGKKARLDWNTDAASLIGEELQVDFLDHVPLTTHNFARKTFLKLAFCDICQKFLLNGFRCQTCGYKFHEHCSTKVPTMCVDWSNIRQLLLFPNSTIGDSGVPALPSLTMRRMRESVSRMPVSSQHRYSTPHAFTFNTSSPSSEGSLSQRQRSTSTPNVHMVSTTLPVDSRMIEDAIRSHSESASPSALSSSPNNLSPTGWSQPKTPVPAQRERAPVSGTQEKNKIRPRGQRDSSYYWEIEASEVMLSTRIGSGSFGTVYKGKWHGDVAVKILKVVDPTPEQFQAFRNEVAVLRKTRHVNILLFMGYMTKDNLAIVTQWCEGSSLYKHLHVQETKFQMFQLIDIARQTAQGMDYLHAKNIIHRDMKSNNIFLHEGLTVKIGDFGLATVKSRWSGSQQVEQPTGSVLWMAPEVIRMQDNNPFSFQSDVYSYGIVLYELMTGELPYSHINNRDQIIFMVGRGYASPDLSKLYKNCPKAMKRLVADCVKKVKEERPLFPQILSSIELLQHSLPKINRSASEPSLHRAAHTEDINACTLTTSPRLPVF
Description: as §1

Pim-1(h) = Pim-1(h) (Homo sapiens, UniProt P11309)
Description: as §1

IGF-1R(h) = IGF-1R(h) (Homo sapiens, UniProt P08069)
Description: as §1

DRAK1(h) = DRAK1(h) (Homo sapiens, UniProt Q9UEE5)
Description: as §1

PKA(h) = PKA(h) (Homo sapiens, UniProt P17612)
Description: as §1

SAPK2a(h) = SAPK2a(h) (Homo sapiens, UniProt Q16539)
Chain of SAPK2a(h) (Q16539 whole entry): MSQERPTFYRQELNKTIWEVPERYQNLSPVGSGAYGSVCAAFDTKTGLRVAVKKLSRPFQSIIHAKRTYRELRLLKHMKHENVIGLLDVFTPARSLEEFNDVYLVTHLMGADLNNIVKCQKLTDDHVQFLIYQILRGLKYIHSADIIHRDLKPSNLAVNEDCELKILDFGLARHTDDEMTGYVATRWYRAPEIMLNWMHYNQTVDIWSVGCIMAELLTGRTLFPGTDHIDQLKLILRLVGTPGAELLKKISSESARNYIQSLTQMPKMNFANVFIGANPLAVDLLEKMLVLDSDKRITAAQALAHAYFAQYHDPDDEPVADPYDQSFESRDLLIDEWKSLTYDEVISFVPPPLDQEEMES
Description: as §1

MAPKAP-K2(h) = MAPKAP-K2(h) (Homo sapiens, UniProt P49137)
Description: as §1

GSK3β(h) = GSK3β(h) (Homo sapiens, UniProt P49841)
Description: as §1

PRAK(h) = PRAK(h) (Homo sapiens, UniProt Q8IW41)
Description: as §1

TAK1(h) = TAK1(h) (Homo sapiens, UniProt O43318)
Description: as §1

PKCθ(h) = PKCθ(h) (Homo sapiens, UniProt Q04759)
Description: as §1

PKCα(h) = PKCα(h) (Homo sapiens, UniProt P17252)
Description: as §1

Lyn(h) = Lyn(h) (Homo sapiens, UniProt P07948)
Description: as §1

MLK1(h) = MLK1(h) (Homo sapiens, UniProt P80192)
Chain of MLK1(h) (P80192 whole entry): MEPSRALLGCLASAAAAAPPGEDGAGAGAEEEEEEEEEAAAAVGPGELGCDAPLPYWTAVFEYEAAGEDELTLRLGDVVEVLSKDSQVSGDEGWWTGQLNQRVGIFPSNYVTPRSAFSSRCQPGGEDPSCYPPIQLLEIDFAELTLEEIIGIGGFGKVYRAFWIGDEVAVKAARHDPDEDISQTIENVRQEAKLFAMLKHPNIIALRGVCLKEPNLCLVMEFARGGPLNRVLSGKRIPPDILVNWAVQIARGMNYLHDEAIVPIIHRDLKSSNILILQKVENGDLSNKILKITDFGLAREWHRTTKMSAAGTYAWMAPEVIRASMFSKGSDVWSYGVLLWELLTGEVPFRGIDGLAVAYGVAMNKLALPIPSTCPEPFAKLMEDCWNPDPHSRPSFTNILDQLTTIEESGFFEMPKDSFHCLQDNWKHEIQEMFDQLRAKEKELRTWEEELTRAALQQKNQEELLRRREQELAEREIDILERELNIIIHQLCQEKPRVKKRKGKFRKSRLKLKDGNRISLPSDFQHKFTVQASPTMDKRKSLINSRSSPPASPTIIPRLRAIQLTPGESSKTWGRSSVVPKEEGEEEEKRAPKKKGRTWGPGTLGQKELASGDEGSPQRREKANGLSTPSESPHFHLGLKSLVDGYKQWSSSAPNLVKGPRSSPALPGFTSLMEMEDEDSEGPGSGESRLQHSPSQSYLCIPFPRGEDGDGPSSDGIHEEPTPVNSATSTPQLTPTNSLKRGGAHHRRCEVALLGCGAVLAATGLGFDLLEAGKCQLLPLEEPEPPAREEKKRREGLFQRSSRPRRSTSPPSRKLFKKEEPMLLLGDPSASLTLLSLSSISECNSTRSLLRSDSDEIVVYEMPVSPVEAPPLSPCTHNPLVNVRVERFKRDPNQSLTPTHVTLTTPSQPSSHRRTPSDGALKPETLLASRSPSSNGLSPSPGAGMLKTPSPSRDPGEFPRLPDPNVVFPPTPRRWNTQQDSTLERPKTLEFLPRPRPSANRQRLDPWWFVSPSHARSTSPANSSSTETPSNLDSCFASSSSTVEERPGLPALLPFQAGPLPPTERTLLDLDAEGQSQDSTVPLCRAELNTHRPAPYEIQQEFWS
Description: as §1

CK1γ1(h) = CK1γ1(h) (Homo sapiens, UniProt Q9HCP0)
Chain of CK1γ1(h) (Q9HCP0 whole entry): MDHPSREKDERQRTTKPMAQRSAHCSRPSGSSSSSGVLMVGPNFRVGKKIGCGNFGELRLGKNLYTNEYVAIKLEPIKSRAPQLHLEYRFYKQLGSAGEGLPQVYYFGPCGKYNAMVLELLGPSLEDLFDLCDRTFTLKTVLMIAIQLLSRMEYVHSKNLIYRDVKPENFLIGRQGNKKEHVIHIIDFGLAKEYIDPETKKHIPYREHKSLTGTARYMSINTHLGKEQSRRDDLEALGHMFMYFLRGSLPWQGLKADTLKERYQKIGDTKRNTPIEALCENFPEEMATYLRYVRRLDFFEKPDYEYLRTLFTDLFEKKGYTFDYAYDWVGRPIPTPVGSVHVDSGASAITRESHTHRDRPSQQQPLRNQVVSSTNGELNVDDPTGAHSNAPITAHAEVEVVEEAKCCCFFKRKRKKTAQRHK
Description: as §1

CDK9/cyclin T1(h) = CDK9/cyclin T1(h) (Homo sapiens, UniProt P50750)
Description: as §1

CDK2/cyclinA(h) = CDK2/cyclinA(h) (Homo sapiens, UniProt P24941)
Description: as §1

AMPKα1(h) = AMPKα1(h) (Homo sapiens, UniProt Q13131)
Description: as §1

EphA5(h) = EphA5(h) (Homo sapiens, UniProt P54756)
Description: as §1

mTOR(h) = mTOR(h) (Homo sapiens, UniProt P42345)
Description: as §1

Cc1ccc2c(Nc3cccc(OC(F)(F)F)c3)nccc2c1Nc1ncccc1-c1ncnc2[nH]cnc12 [LUT014]
remaining activity at 0.01 µM (KDR(h); Lut014 @ 0.01 μM): 96% | remaining activity at 1 µM (KDR(h); Lut014 @ 1 μM): 79% | remaining activity at 0.01 µM ([1]; Lut014 @ 0.01 μM): 101% | remaining activity at 1 µM ([1]; Lut014 @ 1 μM): 95% | remaining activity at 0.01 µM (ASK1(h); Lut014 @ 0.01 μM): 109% | remaining activity at 1 µM (ASK1(h); Lut014 @ 1 μM): 99% | remaining activity at 0.01 µM (CDK1/cyclinB(h); Lut014 @ 0.01 μM): 113% | remaining activity at 1 µM (CDK1/cyclinB(h); Lut014 @ 1 μM): 102% | remaining activity at 0.01 µM (p70S6K(h); Lut014 @ 0.01 μM): 108% | remaining activity at 1 µM (p70S6K(h); Lut014 @ 1 μM): 97% | remaining activity at 0.01 µM (MST1(h); Lut014 @ 0.01 μM): 98% | remaining activity at 1 µM (MST1(h); Lut014 @ 1 μM): 112% | remaining activity at 0.01 µM (EGFR(h); Lut014 @ 0.01 μM): 98% | remaining activity at 1 µM (EGFR(h); Lut014 @ 1 μM): 100% | remaining activity at 0.01 µM (CK2α2(h); Lut014 @ 0.01 μM): 98% | remaining activity at 1 µM (CK2α2(h); Lut014 @ 1 μM): 92% | remaining activity at 0.01 µM (IRAK4(h); Lut014 @ 0.01 μM): 94% | remaining activity at 1 µM (IRAK4(h); Lut014 @ 1 μM): 109% | remaining activity at 0.01 µM (NEK2(h); Lut014 @ 0.01 μM): 98% | remaining activity at 1 µM (NEK2(h); Lut014 @ 1 μM): 125% | remaining activity at 0.01 µM (PI3 Kinase (p120γ)(h); Lut014 @ 0.01 μM): 96% | remaining activity at 1 µM (PI3 Kinase (p120γ)(h); Lut014 @ 1 μM): 83% | remaining activity at 0.01 µM (c-RAF(h); Lut014 @ 0.01 μM): 105% | remaining activity at 1 µM (c-RAF(h); Lut014 @ 1 μM): 30% | remaining activity at 0.01 µM (Pim-1(h); Lut014 @ 0.01 μM): 96% | remaining activity at 1 µM (Pim-1(h); Lut014 @ 1 μM): 89% | remaining activity at 0.01 µM (IGF-1R(h); Lut014 @ 0.01 μM): 88% | remaining activity at 1 µM (IGF-1R(h); Lut014 @ 1 μM): 86% | remaining activity at 0.01 µM (DRAK1(h); Lut014 @ 0.01 μM): 99% | remaining activity at 1 µM (DRAK1(h); Lut014 @ 1 μM): 117% | remaining activity at 0.01 µM (PKA(h); Lut014 @ 0.01 μM): 114% | remaining activity at 1 µM (PKA(h); Lut014 @ 1 μM): 106% | remaining activity at 0.01 µM (SAPK2a(h); Lut014 @ 0.01 μM): 97% | remaining activity at 1 µM (SAPK2a(h); Lut014 @ 1 μM): 54% | remaining activity at 0.01 µM (MAPKAP-K2(h); Lut014 @ 0.01 μM): 110% | remaining activity at 1 µM (MAPKAP-K2(h); Lut014 @ 1 μM): 103% | remaining activity at 0.01 µM (GSK3β(h); Lut014 @ 0.01 μM): 105% | remaining activity at 1 µM (GSK3β(h); Lut014 @ 1 μM): 98% | remaining activity at 0.01 µM (PRAK(h); Lut014 @ 0.01 μM): 101% | remaining activity at 1 µM (PRAK(h); Lut014 @ 1 μM): 103% | remaining activity at 0.01 µM (TAK1(h); Lut014 @ 0.01 μM): 91% | remaining activity at 1 µM (TAK1(h); Lut014 @ 1 μM): 97% | remaining activity at 0.01 µM (PKCθ(h); Lut014 @ 0.01 μM): 106% | remaining activity at 1 µM (PKCθ(h); Lut014 @ 1 μM): 109% | remaining activity at 0.01 µM (PKCα(h); Lut014 @ 0.01 μM): 102% | remaining activity at 1 µM (PKCα(h); Lut014 @ 1 μM): 107% | remaining activity at 0.01 µM (Lyn(h); Lut014 @ 0.01 μM): 101% | remaining activity at 1 µM (Lyn(h); Lut014 @ 1 μM): 46% | remaining activity at 0.01 µM (MLK1(h); Lut014 @ 0.01 μM): 109% | remaining activity at 1 µM (MLK1(h); Lut014 @ 1 μM): 112% | remaining activity at 0.01 µM (CK1γ1(h); Lut014 @ 0.01 μM): 94% | remaining activity at 1 µM (CK1γ1(h); Lut014 @ 1 μM): 101% | remaining activity at 0.01 µM (CDK9/cyclin T1(h); Lut014 @ 0.01 μM): 110% | remaining activity at 1 µM (CDK9/cyclin T1(h); Lut014 @ 1 μM): 98% | remaining activity at 0.01 µM (CDK2/cyclinA(h); Lut014 @ 0.01 μM): 106% | remaining activity at 1 µM (CDK2/cyclinA(h); Lut014 @ 1 μM): 95% | remaining activity at 0.01 µM (AMPKα1(h); Lut014 @ 0.01 μM): 106% | remaining activity at 1 µM (AMPKα1(h); Lut014 @ 1 μM): 114% | remaining activity at 0.01 µM (EphA5(h); Lut014 @ 0.01 μM): 99% | remaining activity at 1 µM (EphA5(h); Lut014 @ 1 μM): 56% | remaining activity at 0.01 µM (mTOR(h); Lut014 @ 0.01 μM): 100% | remaining activity at 1 µM (mTOR(h); Lut014 @ 1 μM): 96%

— patent US11339163B2, “BRaf inhibitors and use thereof for treatment of cutaneous reactions” (Lutris Pharma Ltd., priority 2017, dated 2022)
